Measurements published in patent US20210053957A1, “HERBICIDAL COMPOUNDS” (SYNGENTA PARTICIPATIONS AG, priority 2018, published 2021).

Assays:
Experiment in all cases: Post-emergence efficacy, glasshouse spray test
Type in all cases: in vivo
[1] = system: Lolium perenne (LOLPE); details: Lolium perenne, post-emergence, 312 h, evaluated after 13 days, read-out: Control of weed species after post-emergence application, LOLPE (100=total damage to plant; 0=no damage to plant); for pest or weed control at 500 g/ha: Application Rate 500 g/Ha; for pest or weed control at 125 g/ha: Application Rate 125 g/Ha
Experimental: (§1) Seeds of a variety of test species were sown in standard soil in pots. After cultivation for 14 days (post-emergence) under controlled conditions in a glasshouse (at 24/16° C. day/night; 14 hours light; 65% humidity), the plants were sprayed with an aqueous spray solution derived from the dissolution of the technical active ingredient formula (I) in a small amount of acetone and a special solvent and emulsifier mixture referred to as IF50 (11.12% Emulsogen EL360 TM+44.44% N-methyl pyrrolidone+44.44% Dowanol DPM glycolether), to create a 50 g/l solution which was then diluted to required concentration using 0.25% or 1% Empicol ESC70 (Sodium lauryl ether sulphate)+1% ammonium sulphate as diluent. The test plants were then grown in a glasshouse under controlled conditions (at 24/16° C., day/night; 14 hours light; 65% humidity) and watered twice daily. After 13 days the test was evaluated (100=total damage to plant; 0=no damage to plant).
(§2) Ipomoea hederacea (IPOHE), Euphorbia heterophylla (EPHHL), Chenopodium album (CHEAL), Amaranthus palmeri (AMAPA), Lolium perenne (LOLPE), Digitaria sanguinalis (DIGSA), Eleusine indica (ELEIN), Echinochloa crus-galli (ECHCG), Setaia fabei (SETFA)

[2] = system: Chenopodium album (CHEAL); details: Chenopodium album, post-emergence, 312 h, evaluated after 13 days, read-out: Control of weed species after post-emergence application, CHEAL (100=total damage to plant; 0=no damage to plant); for pest or weed control at 500 g/ha: Application Rate 500 g/Ha; for pest or weed control at 125 g/ha: Application Rate 125 g/Ha
Experimental: as §1, §2

[3] = system: Euphorbia heterophylla (EPHHL); details: Euphorbia heterophylla, post-emergence, 312 h, evaluated after 13 days, read-out: Control of weed species after post-emergence application, EPHHL (100=total damage to plant; 0=no damage to plant); for pest or weed control at 500 g/ha: Application Rate 500 g/Ha
Experimental: as §1, §2

[4] = system: Amaranthus palmeri (AMAPA); details: Amaranthus palmeri, post-emergence, 312 h, evaluated after 13 days, read-out: Control of weed species after post-emergence application, AMAPA (100=total damage to plant; 0=no damage to plant); for pest or weed control at 500 g/ha: Application Rate 500 g/Ha; for pest or weed control at 125 g/ha: Application Rate 125 g/Ha
Experimental: as §1, §2

[5] = system: Digitaria sanguinalis (DIGSA); details: Digitaria sanguinalis, post-emergence, 312 h, evaluated after 13 days, read-out: Control of weed species after post-emergence application, DIGSA (100=total damage to plant; 0=no damage to plant); for pest or weed control at 500 g/ha: Application Rate 500 g/Ha; for pest or weed control at 125 g/ha: Application Rate 125 g/Ha
Experimental: as §1, §2

[6] = system: Ipomoea hederacea (IPOHE); details: Ipomoea hederacea, post-emergence, 312 h, evaluated after 13 days, read-out: Control of weed species after post-emergence application, IPOHE (100=total damage to plant; 0=no damage to plant); for pest or weed control at 500 g/ha: Application Rate 500 g/Ha; for pest or weed control at 125 g/ha: Application Rate 125 g/Ha
Experimental: as §1, §2

[7] = system: Setaia fabei (SETFA); details: Setaria faberi, post-emergence, 312 h, evaluated after 13 days, read-out: Control of weed species after post-emergence application, SETFA (100=total damage to plant; 0=no damage to plant); for pest or weed control at 500 g/ha: Application Rate 500 g/Ha; for pest or weed control at 125 g/ha: Application Rate 125 g/Ha
Experimental: as §1, §2

[8] = system: Eleusine indica (ELEIN); details: Eleusine indica, post-emergence, 312 h, evaluated after 13 days, read-out: Control of weed species after post-emergence application, ELEIN (100=total damage to plant; 0=no damage to plant); for pest or weed control at 500 g/ha: Application Rate 500 g/Ha; for pest or weed control at 125 g/ha: Application Rate 125 g/Ha
Experimental: as §1, §2

[9] = system: Echinochloa crus-galli (ECHCG); details: Echinochloa crus-galli, post-emergence, 312 h, evaluated after 13 days, read-out: Control of weed species after post-emergence application, ECHCG (100=total damage to plant; 0=no damage to plant); for pest or weed control at 500 g/ha: Application Rate 500 g/Ha; for pest or weed control at 125 g/ha: Application Rate 125 g/Ha
Experimental: as §1, §2

SMILES | pest or weed control at 500 g/ha [1] [%] | pest or weed control at 500 g/ha [2] [%] | pest or weed control at 500 g/ha [3] [%] | pest or weed control at 500 g/ha [4] [%] | pest or weed control at 500 g/ha [5] [%] | pest or weed control at 500 g/ha [6] [%] | pest or weed control at 500 g/ha [7] [%] | pest or weed control at 500 g/ha [8] [%] | pest or weed control at 500 g/ha [9] [%] | pest or weed control at 125 g/ha [1] [%] | pest or weed control at 125 g/ha [2] [%] | pest or weed control at 125 g/ha ([3]; Application Rate 125 g/Ha) [%] | pest or weed control at 125 g/ha [4] [%] | pest or weed control at 125 g/ha [5] [%] | pest or weed control at 125 g/ha [6] [%] | pest or weed control at 125 g/ha [7] [%] | pest or weed control at 125 g/ha [8] [%] | pest or weed control at 125 g/ha [9] [%]
COP(=O)(O)CCC[n+]1ccc(-c2ncco2)cn1 [Compound A86] | 20 | 30 | 30 | 40 | 30 | 40 | 20 | 20 | 10 |  |  |  |  |  |  |  |  | 
O=S(=O)([O-])CC[n+]1ccc(-c2nc(C(F)(F)F)cs2)cn1 [Compound A18] | 40 | 10 | 50 | 90 | 30 | 30 | 40 | 30 | 30 |  |  |  |  |  |  |  |  | 
CNC(=O)c1coc(-c2cc[n+](CCC(=O)O)nc2)n1 [Compound A127] | 20 | 100 | 70 | 100 | 90 | 60 | 70 | 70 | 80 |  |  |  |  |  |  |  |  | 
O=S(=O)([O-])CC[n+]1ccc(-c2nc(Cl)cs2)cn1 [Compound A25] | 20 | 70 | 80 | 80 | 40 | 40 | 40 | 40 | 30 |  |  |  |  |  |  |  |  | 
O=C(O)CC[n+]1ccc(-c2cscn2)cn1 [Compound A100] | 10 | 0 | 30 | 0 | 40 | 20 | 30 | 30 | 30 |  |  |  |  |  |  |  |  | 
Cn1ccc(-c2cc[n+](CCS(=O)(=O)[O-])nc2)n1 [Compound A2] |  |  |  |  |  |  |  |  |  | 0 | 0 | 30 | 0 | 20 | 10 | 20 | 10 | 10
Cc1nnc(-c2cc[n+](CCC(=O)O)nc2)o1 [Compound A140] | 10 | 0 | 0 | 10 | 70 | 0 | 70 | 90 | 20 |  |  |  |  |  |  |  |  | 
O=C(O)CCC[n+]1ccc(-c2nccs2)cn1 [Compound A115] | 60 | 70 | 100 | 100 | 90 | 20 | 100 | 100 | 90 |  |  |  |  |  |  |  |  | 
Cc1nsc(-c2cc[n+](CCS(=O)(=O)[O-])nc2)n1 [Compound A10] | 60 | 80 | 60 | 60 | 50 | 50 | 60 | 60 | 30 |  |  |  |  |  |  |  |  | 
COC(=O)[C@@H](N)CC[n+]1ccc(-c2ncco2)cn1 [Compound A109] | 10 | 90 | 60 | 90 |  | 0 | 90 |  |  |  |  |  |  |  |  |  |  | 
CCOP(=O)(CC[n+]1ccc(-c2ncco2)cn1)OCC [Compound A75] |  |  |  |  |  |  |  |  |  | 0 | 40 |  | 0 | 10 | 0 | 0 | 0 | 0
O=P(O)(O)CCC[n+]1ccc(-c2ncco2)cn1 [Compound A78] | 10 | 80 |  | 70 | 60 | 50 | 50 | 0 | 20 |  |  |  |  |  |  |  |  | 
COc1csc(-c2cc[n+](CCS(=O)(=O)[O-])nc2)n1 [Compound A26] | 30 | 40 |  | 20 | 30 | 40 | 40 | 40 | 20 |  |  |  |  |  |  |  |  | 
Cc1coc(-c2cc[n+](CCC(=O)O)nc2)n1 [Compound A55] | 70 | 80 |  | 100 | 100 | 20 | 100 | 100 | 100 |  |  |  |  |  |  |  |  | 
O=C(O)CC[n+]1ccc(-c2cccs2)cn1 [Compound A41] | 0 | 60 |  | 0 | 0 | 10 | 0 | 0 | 0 |  |  |  |  |  |  |  |  | 
